From patent EP1103270B1, “TREATMENT OF AUTOIMMUNE DISEASES IN MAMMALS” (UNIVERSIDAD COMPLUTENSE DE MADRID, priority 1999, dated 2000)

Assays:
mRNA of IL-6 = test: Northern Blot for mRNA of IL-6 in macrophages activated with LPS; assay type: cell-based, rat; settings: macrophages activated with LPS and exposed to the peptide; Figure 5
Protocol: (§1) • Figure 1 represents the production of TNFα by murine macrophages in culture (5x10^5 cells/ml) stimulated with 10ngr/ml of LPS in the presence or absence of 10^-8M of VIP or ACHPA during the course of 24 hours. • Figure 2 represents the production of TNFα by murine macrophages in culture (5x10^5 cells/ml) after 6 hours of culture with 10ngr/ml of LPS and to which 10^-8M of VIP or ACHPA are added at different times. • Figure 3 represents the production of IL-6 by murine macrophages in culture (5x10^5 cells/ml) stimulated with 10ngr/ml of LPS in the presence or absence of 10^-8M of VIP or ACHPA during the course of 24 hours. • Figure 4 represents the production of IL-6 by murine macrophages in culture (5x10^5 cells/ml) after 6 hours of culture with 10ngr/ml of LPS and to which 10^-8M of VIP or ACHPA are added at different times. • Figure 5 presents the Northern Blot analysis for the presence of mRNA of TNFα and IL-6 in macrophages stimulated with LPS in the presence or absence of VIP or ACHPA (18S represents the corresponding rRNA as total quality control of loaded RNA). • Figure 6 represents the survival in mice injected with 400µgr of LPS and, simultaneously, or after 30 minutes, 1 or 4 hours, with 5 nmol of VIP or ACHPA.
(§2) Macrophages from rat were submitted to the experimental conditions described in examples 1 and 3 and their mRNA was isolated. […]

anti-KLH antibodies = test: Isotype of serum anti-KLH antibodies (ELISA) in KLH-immunised mice; assay type: in vivo; settings: 5 nmol/mouse with second KLH injection, serum two weeks after the last immunisation
TNFα [1] = test: Circulating levels of TNFα in mice after injection of LPS; assay type: in vivo; settings: 2 hours after injection of 25 µgr of LPS, simultaneous administration of 5 nmol
Protocol: In an experiment carried out with mice the circulating levels of TNFα 2 hours after injection of 25 µgr of LPS were approximately 4 ngr./ml. Simultaneous administration of 5 nmol of VIP or ACHPA reduced said levels by 60%.

IL-6 [2] = test: Production of IL-6 in peritoneal murine macrophages stimulated with LPS, in vitro; assay type: cell-based
Protocol: In experiments carried out " in vitro" VIP and ACHPA inhibit the production of IL-6 in peritoneal murine macrophages stimulated with LPS. Most of the inhibition reaches values near to 90% and occurs with doses of stimulation of 10 µgr./ml of LPS. […] The inhibitory effect is also observed if the neuropeptides are added after stimulation with LPS, although the degree of inhibition is progressively smaller (see Figure 4).

mRNA of TNFα = test: Northern Blot for mRNA of TNFα in macrophages activated with LPS; assay type: cell-based, rat; settings: macrophages activated with LPS and exposed to the peptide; Figure 5
Protocol: as §1, §2

IL-4 producing cells = test: Number of IL-4 producing cells (ELISPOT) in spleen and peritoneum of KLH-immunised mice; assay type: in vivo; settings: 5 nmol/mouse with second KLH injection, spleen and peritoneum cells two weeks later
IL-6 [3] = test: Circulating levels of IL-6 in mice after injection of LPS; assay type: in vivo; settings: two hours after injection of 25 µgr. of LPS, simultaneous administration of 5nmol
Excerpt: In an experiment carried out in mice the circulating levels of IL-6 two hours after injection of 25 µgr. of LPS were approximately 1.5 ngr./ml. The simultaneous administration of 5nmol of VIP or ACHPA reduced said levels by 60% and 75%, respectively.

[4] = Survival of mice injected with a lethal dose of LPS (endotoxic shock); assay type: in vivo; settings: mice injected with 400µgr of LPS
Protocol: as §1
An experiment was carried out in which the long-term survival over a period of 4 days was studied for mice injected with 400µgr of LPS. […]

TNFα [5] = test: Production of TNFα in peritoneal murine macrophages stimulated with LPS, in vitro; assay type: cell-based
Protocol: as §1
In experiments carried out "in vitro" VIP and ACHPA inhibit the production of TNFα in peritoneal murine macrophages stimulated with LPS. […]

With “adenylate cyclase hypophysary peptide activator [ACHPA]” the “transcripts for IL-6 (Northern Blot)” value (mRNA of IL-6) was “absence of transcripts”, the “isotype of anti-KLH antibodies detectable in serum” value (anti-KLH antibodies) was “only of the IgGl isotype” and the “reduction of circulating levels of TNFα” value (TNFα [1]) was 60%. The IC50 (IL-6 [2]; peritoneal murine macrophages stimulated with LPS, read-out: IC50 (inhibition of the production of IL-6)) was 0.0086 nM, the “inhibition of the production of IL-6 (most of the inhibition)” value (IL-6 [2]; peritoneal murine macrophages, stimulation with 10 µgr./ml of LPS) was about 90% and the “transcripts for TNFα (Northern Blot)” value (mRNA of TNFα) was “absence of transcripts”. For the same substance, the “increase in the number of IL-4 producing cells compared to untreated mice” value (IL-4 producing cells) was about 20 times, the “reduction of circulating levels of IL-6” value (IL-6 [3]) was 75% and the survival rates ([4]; administration up to 1 hour after injection with LPS) was about 50%. The “survival at the end of the experiment” value ([4]; simultaneous administration of 5 nmol, period of 4 days) was 60%, the IC50 (TNFα [5]; peritoneal murine macrophages stimulated with LPS, read-out: IC50 (inhibition of the production of TNFα)) was 0.08 nM and the “greatest degree of inhibition of the production of TNFα” value (TNFα [5]; peritoneal murine macrophages, stimulation with 1-10 ngr./ml of LPS) was about 60%.
